According to patent publication US20250345392A1, “ANNEXIN A1 LIQUID PHARMACEUTICAL COMPOSITION” (ResoTher Pharma A/S, priority 2022, published 2025):
Where two headings read alike, the source gives them in different places. Ends that are not written are not given here.

Assay: 14-day repeat dose IV toxicity study with toxicokinetic evaluation on Day 1 and Day 14 in rats
Type: in vivo, Wistar rats
Conditions: rat, in vivo, iv
Protocol: Peptide 1 in blood samples collected from animals used in the studies (rat and dog) has been measured by an LC-MS/MS method. Analysis of samples collected in the pharmacokinetic study in rats was performed prior to validation of the method. Prior to analysis of samples from the GLP toxicology studies, the method was validated according to GLP to ensure that it is selective, accurate, reproducible, and able to produce reliable results. The method was validated over the range from 0.075 to 25 μg/mL Peptide 1.
In the 14-day intravenous toxicity study in Wistar rats (see study description below), samples were collected from 3 male and 3 female animals per group dosed at 0 (Control), 1, 3 or 10 mg/kg/day at 2, 5, 10, 20 and 40 minutes after dosing on Days 1 and 14. Samples were analysed for levels of Peptide 1.

[1] = 1 mg/kg/day, IV 1.0 mg/kg/day, male, Day 1
[2] = 1 mg/kg/day, IV 1.0 mg/kg/day, male, Day 14
[3] = 3 mg/kg/day, IV 3.0 mg/kg/day, female, Day 1
[4] = 3 mg/kg/day, IV 3.0 mg/kg/day, female, Day 14
[5] = 3 mg/kg/day, IV 3.0 mg/kg/day, male, Day 1
[6] = 3 mg/kg/day, IV 3.0 mg/kg/day, male, Day 14
[7] = 10 mg/kg/day, IV 10 mg/kg/day, female, Day 1
[8] = 10 mg/kg/day, IV 10 mg/kg/day, female, Day 14
[9] = 10 mg/kg/day, IV 10 mg/kg/day, male, Day 1
[10] = 10 mg/kg/day, IV 10 mg/kg/day, male, Day 14

**Q.** Which results are given for “AMVSEFLKQAWFIENEEQEYVQTLKSSKGGPGSAVSPYPTFNPSSDV-NH2 [Peptide 1]”?
**A.** C0 [1]: 9960 ng/mL; clearance [1]: 18 mL/min/kg; AUC(0-inf) (1 mg/kg/day, IV 1.0 mg/kg/day, male, Day 1, read-out: AUC0-∞ (converted)): 927 ng·h/mL; half-life (1 mg/kg/day, IV 1.0 mg/kg/day, male, Day 1, read-out: T1/2): 8.4 min; Vd (1 mg/kg/day, IV 1.0 mg/kg/day, male, Day 1, read-out: Vz): 0.218 L/kg; C0 [2]: 10300 ng/mL; clearance [2]: 17.2 mL/min/kg; AUC(0-inf) (1 mg/kg/day, IV 1.0 mg/kg/day, male, Day 14, read-out: AUC0-∞ (converted)): 967 ng·h/mL; half-life (1 mg/kg/day, IV 1.0 mg/kg/day, male, Day 14, read-out: T1/2): 7.66 min; Vd (1 mg/kg/day, IV 1.0 mg/kg/day, male, Day 14, read-out: Vz): 0.19 L/kg; C0 [3]: 30600 ng/mL; clearance [3]: 17.4 mL/min/kg; AUC(0-inf) (3 mg/kg/day, IV 3.0 mg/kg/day, female, Day 1, read-out: AUC0-∞ (converted)): 2870 ng·h/mL; half-life (3 mg/kg/day, IV 3.0 mg/kg/day, female, Day 1, read-out: T1/2): 8 min; Vd (3 mg/kg/day, IV 3.0 mg/kg/day, female, Day 1, read-out: Vz): 0.201 L/kg; C0 [4]: 41900 ng/mL; clearance [4]: 14.8 mL/min/kg; AUC(0-inf) (3 mg/kg/day, IV 3.0 mg/kg/day, female, Day 14, read-out: AUC0-∞ (converted)): 3380 ng·h/mL; half-life (3 mg/kg/day, IV 3.0 mg/kg/day, female, Day 14, read-out: T1/2): 6.85 min; Vd (3 mg/kg/day, IV 3.0 mg/kg/day, female, Day 14, read-out: Vz): 0.146 L/kg; C0 [5]: 23000 ng/mL; clearance [5]: 21.9 mL/min/kg; AUC(0-inf) (3 mg/kg/day, IV 3.0 mg/kg/day, male, Day 1, read-out: AUC0-∞ (converted)): 2280 ng·h/mL; half-life (3 mg/kg/day, IV 3.0 mg/kg/day, male, Day 1, read-out: T1/2): 7 min; Vd (3 mg/kg/day, IV 3.0 mg/kg/day, male, Day 1, read-out: Vz): 0.221 L/kg; C0 [6]: 36700 ng/mL; clearance [6]: 18.7 mL/min/kg; AUC(0-inf) (3 mg/kg/day, IV 3.0 mg/kg/day, male, Day 14, read-out: AUC0-∞ (converted)): 2680 ng·h/mL; half-life (3 mg/kg/day, IV 3.0 mg/kg/day, male, Day 14, read-out: T1/2): 6.67 min; Vd (3 mg/kg/day, IV 3.0 mg/kg/day, male, Day 14, read-out: Vz): 0.18 L/kg; C0 [7]: 127000 ng/mL; clearance [7]: 17.4 mL/min/kg; AUC(0-inf) (10 mg/kg/day, IV 10 mg/kg/day, female, Day 1, read-out: AUC0-∞ (converted)): 9570 ng·h/mL; half-life (10 mg/kg/day, IV 10 mg/kg/day, female, Day 1, read-out: T1/2): 7.16 min; Vd (10 mg/kg/day, IV 10 mg/kg/day, female, Day 1, read-out: Vz): 0.18 L/kg; C0 [8]: 138000 ng/mL; clearance [8]: 16.5 mL/min/kg; AUC(0-inf) (10 mg/kg/day, IV 10 mg/kg/day, female, Day 14, read-out: AUC0-∞ (converted)): 10100 ng·h/mL; half-life (10 mg/kg/day, IV 10 mg/kg/day, female, Day 14, read-out: T1/2): 7.04 min; Vd (10 mg/kg/day, IV 10 mg/kg/day, female, Day 14, read-out: Vz): 0.168 L/kg; C0 [9]: 104000 ng/mL; clearance [9]: 18.1 mL/min/kg; AUC(0-inf) (10 mg/kg/day, IV 10 mg/kg/day, male, Day 1, read-out: AUC0-∞ (converted)): 9200 ng·h/mL; half-life (10 mg/kg/day, IV 10 mg/kg/day, male, Day 1, read-out: T1/2): 7.8 min; Vd (10 mg/kg/day, IV 10 mg/kg/day, male, Day 1, read-out: Vz): 0.204 L/kg; C0 [10]: 92300 ng/mL; clearance [10]: 18.2 mL/min/kg; AUC(0-inf) (10 mg/kg/day, IV 10 mg/kg/day, male, Day 14, read-out: AUC0-∞ (converted)): 9130 ng·h/mL; half-life (10 mg/kg/day, IV 10 mg/kg/day, male, Day 14, read-out: T1/2): 7.31 min; Vd (10 mg/kg/day, IV 10 mg/kg/day, male, Day 14, read-out: Vz): 0.192 L/kg
